Our source for the CC50 values is patent US12448388B2, “PRMT5 inhibitors and uses thereof” (Gilead Sciences, Inc., priority 2023, dated 2025).

This assay has as its system HCT116 MTAP-deleted cell lines. As to the kind of experiment: Cell viability assay (CellTiter-Glo, 7 days), HCT116 MTAP-deleted. In kind it is cell-based. Conditions: Homo sapiens, HCT-116; cell viability, HCT116 MTAP-deleted; class symbols; read-out: CC50. The essentials: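 CC50 values come from 7-day CellTiter-Glo viability measurements on cells exposed to a dose range of PRMT5 inhibitors dispensed from DMSO stocks.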

The term CC50 denotes the concentration at which the toxic effect on the cells reaches its halfway point. In the case of `C[C@@H]1C[C@@H]2Oc3cc(C(F)(F)F)c(F)cc3[C@@H]2N(C(=O)c2cc3c(cc2F)nc(N)c2cncn23)C1` [Ff-248, (4-amino-7-fluoroimidazo[1,5-a]quinoxalin-8-yl)((3R,4aS,9bS)-8-fluoro-3-methyl-7-(trifluoromethyl)-3,4,4a,9b-tetrahydrobenzofuro[3,2-b]pyridin-1(2H)-yl)methanone], the CC50 was under 100 nM.
In the case of `C[C@@H]1C[C@@H]2Oc3cc(C(F)(F)F)ccc3[C@@H]2N(C(=O)c2cc3c(cc2F)nc(N)c2cncn23)C1` [Ff-251, (4-amino-7-fluoroimidazo[1,5-a]quinoxalin-8-yl)((3R,4aS,9bS)-3-methyl-7-(trifluoromethyl)-3,4,4a,9b-tetrahydrobenzofuro[3,2-b]pyridin-1(2H)-yl)methanone], the CC50 is under 100 nM.
As to `CN(C(=O)c1cc2c(cc1F)nc(N)c1cncn12)[C@H]1c2ccc(C(F)(F)F)cc2[C@@H]2C[C@@H]21` [Ff-253, 4-amino-7-fluoro-N-methyl-N-((1aR,6R,6aS)-3-(trifluoromethyl)-1,1a,6,6a-tetrahydrocyclopropa[a]inden-6-yl)imidazo[1,5-a]quinoxaline-8-carboxamide], the CC50 lay in the range of 100 to 1000 nM.
For `CN(C(=O)c1cc2c(cn1)nc(N)c1cncn12)[C@H]1c2ccc(C(F)(F)F)cc2[C@@H]2C[C@@H]21` [Ff-254, 4-amino-N-methyl-N-((1aR,6R,6aS)-3-(trifluoromethyl)-1,1a,6,6a-tetrahydrocyclopropa[a]inden-6-yl)imidazo[1,5-a]pyrido[3,4-e]pyrazine-8-carboxamide], the CC50 was 100 to 1000 nM.
Regarding `CN(C(=O)c1cc2c(cc1F)nc(N)c1cncn12)[C@H]1c2ccc(C(F)(F)F)cc2[C@H]2C[C@H]21` [Ff-255, 4-amino-7-fluoro-N-methyl-N-((1aS,6R,6aR)-3-(trifluoromethyl)-1,1a,6,6a-tetrahydrocyclopropa[a]inden-6-yl)imidazo[1,5-a]quinoxaline-8-carboxamide], the CC50 fell in the range of 100 to 1000 nM.
Take `CN(C(=O)c1cc2c(cn1)nc(N)c1cncn12)[C@H]1c2ccc(C(F)(F)F)cc2[C@H]2C[C@H]21` [Ff-256, 4-amino-N-methyl-N-((1aS,6R,6aR)-3-(trifluoromethyl)-1,1a,6,6a-tetrahydrocyclopropa[a]inden-6-yl)imidazo[1,5-a]pyrido[3,4-e]pyrazine-8-carboxamide]: the CC50 was in the range of 100 to 1000 nM.
Regarding `Nc1nc2cnc(C(=O)N3CCC[C@@H]4Oc5cc(C(F)(F)F)c(Cl)cc5[C@@H]43)cc2n2cncc12` [Ff-259, (4-aminoimidazo[1,5-a]pyrido[3,4-e]pyrazin-8-yl)((4aS,9bS)-8-chloro-7-(trifluoromethyl)-3,4,4a,9b-tetrahydrobenzofuro[3,2-b]pyridin-1(2H)-yl)methanone], the CC50 was under 100 nM.
With `Nc1nc2cc(F)c(C(=O)N3CCC[C@@H]4Oc5cc(Cl)ccc5[C@@H]43)cc2n2cncc12` [Ff-260, (4-amino-7-fluoroimidazo[1,5-a]quinoxalin-8-yl)((4aS,9bS)-7-chloro-3,4,4a,9b-tetrahydrobenzofuro[3,2-b]pyridin-1(2H)-yl)methanone] the figure was under 100 nM; with `C[C@@H]1C[C@@H]2Oc3cc(C(F)(F)F)c(F)cc3[C@@H]2N(C(=O)c2cc3c(cn2)nc(N)c2cncn23)C1` [Ff-261, (4-aminoimidazo[1,5-a]pyrido[3,4-e]pyrazin-8-yl)((3R,4aS,9bS)-8-fluoro-3-methyl-7-(trifluoromethyl)-3,4,4a,9b-tetrahydrobenzofuro[3,2-b]pyridin-1(2H)-yl)methanone], under 100 nM.
For `Nc1nc2ccc(C(=O)N(Cc3ccc(OC(F)F)cc3F)C34CC(C3)C4)cc2n2cncc12` [Ff-264, 4-amino-N-(bicyclo[1.1.1]pentan-1-yl)-N-(4-(difluoromethoxy)-2-fluorobenzyl)imidazo[1,5-a]quinoxaline-8-carboxamide], the CC50 lay in the range of 100 to 1000 nM.
As for `Nc1nc2cc(F)c(C(=O)N(Cc3ccc(OC(F)F)cc3F)C34CC(C3)C4)cc2n2cncc12` [Ff-265, 4-amino-N-(bicyclo[1.1.1]pentan-1-yl)-N-(4-(difluoromethoxy)-2-fluorobenzyl)-7-fluoroimidazo[1,5-a]quinoxaline-8-carboxamide], the CC50 is under 100 nM.
`CN(C(=O)c1ccc2nc(N)c3cncn3c2c1)C1CCc2nc(C(F)(F)F)ccc21` (stereo not shown) [Ff-266, 4-amino-N-methyl-N-(2-(trifluoromethyl)-6,7-dihydro-5H-cyclopenta[b]pyridin-5-yl)imidazo[1,5-a]quinoxaline-8-carboxamide]: the CC50 lay in the range of 100 to 1000 nM.
As for `Nc1nc2ccc(C(=O)N(Cc3ccc(C(F)(F)F)cn3)C34COC(C3)C4)cc2n2cncc12` [Ff-267, 4-amino-N-(2-oxabicyclo[2.1.1]hexan-4-yl)-N-((5-(trifluoromethyl)pyridin-2-yl)methyl)imidazo[1,5-a]quinoxaline-8-carboxamide], the CC50 was in the range of 100 to 1000 nM.
With `Nc1nc2cc(F)c(C(=O)N(Cc3ccc(C(F)(F)F)cn3)C34COC(C3)C4)cc2n2cncc12` [Ff-268, 4-amino-N-(2-oxabicyclo[2.1.1]hexan-4-yl)-7-fluoro-N-((5-(trifluoromethyl)pyridin-2-yl)methyl)imidazo[1,5-a]quinoxaline-8-carboxamide] the figure was under 100 nM.
With `CN(C(=O)c1cc2c(cc1F)nc(N)c1cncn12)[C@@H]1COc2cc(C#N)ccc21` [Ff-269, (S)-4-amino-N-(6-cyano-2,3-dihydrobenzofuran-3-yl)-7-fluoro-N-methylimidazo[1,5-a]quinoxaline-8-carboxamide] the figure was under 100 nM; with `CC1(N(Cc2ccc(C(F)(F)F)cc2F)C(=O)c2ccc3nc(N)c4cncn4c3c2)COC1` [Ff-270, 4-amino-N-(2-fluoro-4-(trifluoromethyl)benzyl)-N-(3-methyloxetan-3-yl)imidazo[1,5-a]quinoxaline-8-carboxamide], 100 to 1000 nM.
Consider `COc1ccc2c(n1)CCC2N(C)C(=O)c1cc2c(cc1F)nc(N)c1cncn12` (stereo not shown) [Ff-271, 4-amino-7-fluoro-N-(2-methoxy-6,7-dihydro-5H-cyclopenta[b]pyridin-5-yl)-N-methylimidazo[1,5-a]quinoxaline-8-carboxamide], for which the CC50 lay in the range of 100 to 1000 nM.
For the molecule `Nc1nc2cc(F)c(C(=O)N(Cc3ccc(C(F)(F)F)cc3F)C34COC(C3)C4)cc2n2cncc12` [Ff-272, 4-amino-N-(2-oxabicyclo[2.1.1]hexan-4-yl)-7-fluoro-N-(2-fluoro-4-(trifluoromethyl)benzyl)imidazo[1,5-a]quinoxaline-8-carboxamide], the CC50 was under 100 nM.
As to `CO[C@@H]1COCC[C@H]1N(Cc1ccc(C(F)(F)F)cc1F)C(=O)c1cc2c(cc1F)nc(N)c1cncn12` [Ff-273, 4-amino-7-fluoro-N-(2-fluoro-4-(trifluoromethyl)benzyl)-N-((3S,4R)-3-methoxytetrahydro-2H-pyran-4-yl)imidazo[1,5-a]quinoxaline-8-carboxamide], the CC50 is under 100 nM.
As for `CO[C@H]1COCC[C@H]1N(Cc1ccc(C(F)(F)F)cc1F)C(=O)c1cc2c(cc1F)nc(N)c1cncn12` [Ff-274, 4-amino-7-fluoro-N-(2-fluoro-4-(trifluoromethyl)benzyl)-N-((3R,4R)-3-methoxytetrahydro-2H-pyran-4-yl)imidazo[1,5-a]quinoxaline-8-carboxamide], the CC50 is under 100 nM.
`CN(C(=O)c1cc2c(cc1F)nc(N)c1cncn12)C1COCc2nc(Br)ccc21` (stereo not shown) [Ff-275, 4-amino-N-(2-bromo-5,8-dihydro-6H-pyrano[3,4-b]pyridin-5-yl)-7-fluoro-N-methylimidazo[1,5-a]quinoxaline-8-carboxamide]: the CC50 is under 100 nM.
For the molecule `Nc1nc2cc(F)c(C(=O)N(Cc3ccc(C(F)(F)F)cc3F)c3cnn(C4CC4)c3)cc2n2cncc12` [Ff-276, 4-amino-N-(1-cyclopropyl-1H-pyrazol-4-yl)-7-fluoro-N-(2-fluoro-4-(trifluoromethyl)benzyl)imidazo[1,5-a]quinoxaline-8-carboxamide], the CC50 was under 100 nM.
Turning to `Nc1nc2cc(F)c(C(=O)N(Cc3ccc(C(F)(F)F)cn3)c3ccccc3)cc2n2cncc12` [Ff-277, 4-amino-7-fluoro-N-phenyl-N-((5-(trifluoromethyl)pyridin-2-yl)methyl)imidazo[1,5-a]quinoxaline-8-carboxamide], the CC50 was under 100 nM.
For the molecule `CN(C(=O)c1cc2c(cc1F)nc(N)c1cncn12)[C@@H]1COCc2nc(C(F)(F)F)ccc21` [Ff-281, (S)-4-amino-7-fluoro-N-methyl-N-(2-(trifluoromethyl)-5,8-dihydro-6H-pyrano[3,4-b]pyridin-5-yl)imidazo[1,5-a]quinoxaline-8-carboxamide], the CC50 was under 100 nM.
As for `CN(C(=O)c1cc2c(cc1F)nc(N)c1cncn12)[C@H]1COCc2nc(C(F)(F)F)ccc21` [Ff-282, (R)-4-amino-7-fluoro-N-methyl-N-(2-(trifluoromethyl)-5,8-dihydro-6H-pyrano[3,4-b]pyridin-5-yl)imidazo[1,5-a]quinoxaline-8-carboxamide], the CC50 fell in the range of 100 to 1000 nM.
Regarding `Nc1nc2cc(F)c(C(=O)N(Cc3ccc(C(F)(F)F)cc3F)c3cnn4c3CCC4)cc2n2cncc12` [Ff-285, 4-amino-N-(5,6-dihydro-4H-pyrrolo[1,2-b]pyrazol-3-yl)-7-fluoro-N-(2-fluoro-4-(trifluoromethyl)benzyl)imidazo[1,5-a]quinoxaline-8-carboxamide], the CC50 is under 100 nM.
On to `Cn1ccc(N(Cc2ccc(C(F)(F)F)cc2F)C(=O)c2cc3c(cc2F)nc(N)c2cncn23)n1` [Ff-286, 4-amino-7-fluoro-N-(2-fluoro-4-(trifluoromethyl)benzyl)-N-(1-methyl-1H-pyrazol-3-yl)imidazo[1,5-a]quinoxaline-8-carboxamide], for which the CC50 was under 100 nM.
With `Cn1cc(N(Cc2ncc(C(F)(F)F)cc2F)C(=O)c2cc3c(cc2F)nc(N)c2cncn23)cn1` [Ff-290, 4-amino-7-fluoro-N-((3-fluoro-5-(trifluoromethyl)pyridin-2-yl)methyl)-N-(1-methyl-1H-pyrazol-4-yl)imidazo[1,5-a]quinoxaline-8-carboxamide] the figure was under 100 nM.
